Some test systems named below: LOX IMVI; OVCAR-4; CAKI-1; RXF 393; MCF7; IGROV-1; SNB-75; NCI-H23; CCRF-CEM; SW-620; A498; M14; SK-MEL-5; HOP-62; COLO 205; HCT-116; HL-60; OVCAR-8; MOLT-4; RPMI-8226.
Test in all cases: DTP human tumour cell line panel, 48 h

These results are taken from ChEMBL document CHEMBL1201862, “PubChem BioAssay data set” (2004).

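Following 48 hours of exposure in 96-well plates, responses at five concentrations were used to interpolate endpoints linearly. The concentration for 50% growth inhibition is given as GI50.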 The source made the active and inactive calls. Rule as the data show it: active = GI50 up to about 1.1 µM and inactive = higher.

As a reminder, the GI50 is the concentration at which growth is held to half of that of the control.

Turning to `Cc1nnc(Nc2ccc(Cl)cc2)o1`, the GI50 in the assay on LOX IMVI, in the assay on OVCAR-4, in the assay on CAKI-1, in the assay with RXF 393, in the assay on MCF7 and in the assay with IGROV-1 was > 10 µM (inactive) throughout. Further, the GI50 with SNB-75, with NCI-H23, in the assay on CCRF-CEM, in the assay with SW-620, in the assay on A498 and with M14 was > 10 µM (inactive) throughout. The GI50 with SK-MEL-5, with HOP-62, in the assay on COLO 205, in the assay on HCT-116, in the assay with HL-60 and with OVCAR-8 was > 10 µM (inactive) throughout.

Consider `CC1[C@@H]2CC=C3C4CCC5Cc6nc7c(nc6C[C@@]5(C)C4CC(=O)[C@]32CO[C@@]1(O)C(O)CC(C)(C)O)CC1CCC2C3=C[C@H]4O[C@@]5(O[C@@](C)(CO)C[C@@H]5O)C(C)[C@@]4(O)[C@]3(C)[C@@H](O)CC2[C@]1(C)C7` (stereo partly drawn), for which the GI50 is 0.00157 µM (active) in the assay with MOLT-4; 0.0069 µM (active) in the assay with LOX IMVI; 0.431 µM (active) in the assay with OVCAR-4; 0.0132 µM (active) in the assay on CAKI-1; < 0.00036 µM (active) with RXF 393; 0.0109 µM (active) in the assay on MCF7. The GI50 in the assay on IGROV-1 is 0.0101 µM (active); with SNB-75, < 0.00036 µM (active); in the assay with NCI-H23 it was 0.00308 µM (active); in the assay on CCRF-CEM, 0.000753 µM (active); with SW-620, 0.00933 µM (active); with A498, 0.00108 µM (active). Also, the GI50 with SK-MEL-5 is 0.0102 µM (active); with HOP-62 it was 0.000495 µM (active); with COLO 205, 0.015 µM (active); in the assay with HCT-116, 0.023 µM (active); in the assay with RPMI-8226, < 0.00036 µM (active); with HL-60, < 0.00036 µM (active). Also, the GI50 in the assay with OVCAR-8 was 0.127 µM (active).

For `CC(C)(C)C(=O)OCC1C(=O)OCC1C(=O)N1Cc2cc3ccccc3nc2C1` (stereo not drawn), the 50% growth inhibitory concentration (GI50) is 1.06 µM (active) with MOLT-4; 4.34 µM (inactive) with LOX IMVI; 2.38 µM (inactive) in the assay on OVCAR-4; 1.28 µM (inactive) in the assay on CAKI-1; 1.5 µM (inactive) in the assay on RXF 393; 3.47 µM (inactive) in the assay with MCF7. Further, the GI50 was 15 µM (inactive) in the assay with IGROV-1; 7.74 µM (inactive) in the assay with SNB-75; 4.55 µM (inactive) in the assay on NCI-H23; 0.711 µM (active) in the assay on CCRF-CEM; 1.57 µM (inactive) in the assay on SW-620; 13.2 µM (inactive) with A498. The GI50 is 2.8 µM (inactive) in the assay with M14; 15.2 µM (inactive) with SK-MEL-5; 14.4 µM (inactive) in the assay on HOP-62; 0.957 µM (active) in the assay with COLO 205; 2.09 µM (inactive) in the assay with HCT-116; 1.31 µM (inactive) in the assay with RPMI-8226. In addition, the concentration for 50% growth inhibition (GI50) is 0.748 µM (active) in the assay on HL-60 and 3.99 µM (inactive) with OVCAR-8.

As to `O=C(NC1C/C(=N/O)c2c(Br)sc(Br)c21)C(F)(F)F` (stereo not drawn), the GI50 was 26.3 µM (inactive) with MOLT-4; 25.5 µM (inactive) with LOX IMVI; 13.8 µM (inactive) with OVCAR-4; 13.8 µM (inactive) with CAKI-1; 11.3 µM (inactive) with RXF 393; 37.6 µM (inactive) in the assay with MCF7. Further, the GI50 in the assay with IGROV-1 was 94 µM (inactive); in the assay on SNB-75, 29.5 µM (inactive); in the assay on NCI-H23, 16 µM (inactive); in the assay on CCRF-CEM, 20.2 µM (inactive); in the assay on SW-620, 30.2 µM (inactive); in the assay on A498 it was 24.5 µM (inactive). The GI50 is 36.2 µM (inactive) with M14; 19.6 µM (inactive) in the assay with SK-MEL-5; 51.8 µM (inactive) with COLO 205; 17.1 µM (inactive) in the assay on HCT-116; 32.4 µM (inactive) in the assay on HL-60; 20.7 µM (inactive) in the assay on OVCAR-8.

As to `CCCS(=O)(=O)O`, the GI50 with MOLT-4, in the assay with LOX IMVI, in the assay with OVCAR-4, in the assay with CAKI-1, in the assay on RXF 393 and in the assay on MCF7 was > 100 µM (inactive) throughout. Moreover, the GI50 in the assay on IGROV-1, in the assay on SNB-75, in the assay on NCI-H23, in the assay with CCRF-CEM, with SW-620 and with A498 was > 100 µM (inactive) throughout. Besides, the GI50 with M14, in the assay on SK-MEL-5, in the assay on HOP-62, in the assay with COLO 205, in the assay with RPMI-8226 and with HL-60 was > 100 µM (inactive) each time. Moreover, in the assay on OVCAR-8, the GI50 is > 100 µM (inactive).

Consider `Cc1[nH]c2ncn(/N=C/c3ccccc3O)c(=N)c2c1Cc1ccccc1`, for which the GI50 with MOLT-4 was 30.8 µM (inactive); with LOX IMVI, 59.2 µM (inactive); in the assay with OVCAR-4, 63.5 µM (inactive); in the assay on CAKI-1, 46.1 µM (inactive); in the assay on RXF 393, > 100 µM (inactive); in the assay on MCF7, 33 µM (inactive). The GI50 with IGROV-1 is > 100 µM (inactive); in the assay on SNB-75, 91 µM (inactive); in the assay on NCI-H23, 50.6 µM (inactive); in the assay with CCRF-CEM, 39.4 µM (inactive); with SW-620, 32.2 µM (inactive); in the assay on A498, 36.5 µM (inactive). For the same compound, the GI50 in the assay on M14 was 58.6 µM (inactive); with HOP-62, > 100 µM (inactive); in the assay with COLO 205 it was > 100 µM (inactive); in the assay with HCT-116, 43.4 µM (inactive); with RPMI-8226, 37.8 µM (inactive); in the assay on HL-60, 23.6 µM (inactive). Besides, the GI50 with OVCAR-8 is > 100 µM (inactive).

For the compound `CC(=O)[C@H]1CCC2[C@@H]3CC=C4C(O)C(OS(=O)(=O)O)CC[C@]4(C)C3CC[C@@]21C` (stereo partly drawn), the GI50 in the assay with MOLT-4, with LOX IMVI, in the assay with OVCAR-4, in the assay with CAKI-1, in the assay with RXF 393 and with MCF7 was > 100 µM (inactive) in each case. The GI50 with IGROV-1, in the assay with SNB-75, with NCI-H23, with CCRF-CEM, in the assay on SW-620 and in the assay with A498 was > 100 µM (inactive) in each case. Further, the GI50 was > 100 µM (inactive) in the assay on SK-MEL-5; > 100 µM (inactive) in the assay with HOP-62; > 100 µM (inactive) with COLO 205; > 100 µM (inactive) in the assay with HCT-116; > 100 µM (inactive) in the assay with RPMI-8226; > 31.6 µM (inactive) in the assay on HL-60. For the same compound, in the assay on OVCAR-8, the GI50 is > 100 µM (inactive).

With `COCCO` [2-METHOXYETHANOL], the GI50 with MOLT-4, in the assay with LOX IMVI, in the assay with OVCAR-4, in the assay with CAKI-1, in the assay with RXF 393 and with MCF7 was > 100 µM (inactive) in each case. Further, the GI50 in the assay with IGROV-1 was > 100 µM (inactive); with SNB-75, > 64.6 µM (inactive); in the assay on NCI-H23, > 100 µM (inactive); in the assay with SW-620, > 100 µM (inactive); in the assay on A498, > 100 µM (inactive); in the assay on SK-MEL-5, > 100 µM (inactive). Besides, the GI50 with HOP-62 was > 78.2 µM (inactive); with COLO 205, > 100 µM (inactive); with HCT-116, > 100 µM (inactive); with RPMI-8226, > 100 µM (inactive); in the assay with HL-60, > 100 µM (inactive); in the assay on OVCAR-8, > 100 µM (inactive).

As to `COc1cc([C@@H]2c3cc4c(cc3[C@@H](c3c(O)cc(O)c5c3O[C@H](c3ccc(O)c(O)c3)[C@@H](O)C5)[C@H]3COC(=O)[C@H]23)OCO4)cc(OC)c1O`, the GI50 was 44 µM (inactive) in the assay with MOLT-4; > 100 µM (inactive) with LOX IMVI; > 100 µM (inactive) in the assay on OVCAR-4; > 100 µM (inactive) in the assay with CAKI-1; > 100 µM (inactive) in the assay with RXF 393; > 100 µM (inactive) in the assay with MCF7. In addition, the GI50 with IGROV-1 is > 100 µM (inactive); in the assay with NCI-H23 it was > 100 µM (inactive); in the assay with CCRF-CEM, 63.2 µM (inactive); with SW-620 it was 58.9 µM (inactive); in the assay on A498, > 100 µM (inactive); in the assay with M14 it was > 100 µM (inactive). Moreover, the GI50 is 46.7 µM (inactive) in the assay on SK-MEL-5; > 100 µM (inactive) with HOP-62; > 100 µM (inactive) in the assay with COLO 205; 72.8 µM (inactive) in the assay with HCT-116; 53 µM (inactive) in the assay on RPMI-8226; 27 µM (inactive) in the assay with HL-60. For the same compound, the GI50 in the assay on OVCAR-8 was > 100 µM (inactive).

For `NC(Cc1c[nH]c2ccccc12)C(=O)O` (stereo not drawn) [DL-TRYPTOPHAN], the GI50 with MOLT-4, in the assay on LOX IMVI, in the assay on OVCAR-4, with CAKI-1, in the assay with RXF 393 and with MCF7 was > 300 µM (inactive) each time. The GI50 with IGROV-1 was > 300 µM (inactive); in the assay on SNB-75, > 300 µM (inactive); in the assay on NCI-H23, > 300 µM (inactive); in the assay on CCRF-CEM, > 300 µM (inactive); in the assay on SW-620, > 300 µM (inactive); in the assay with A498 it was > 13.9 µM (inactive). The GI50 in the assay with SK-MEL-5, with HOP-62, in the assay on COLO 205, in the assay on HCT-116, in the assay on RPMI-8226 and in the assay on HL-60 was > 300 µM (inactive) in each case. Also, the GI50 in the assay on OVCAR-8 was 231 µM (inactive).
